Measurements from patent US10906888B2, “Pyrimidine carboxamides as inhibitors of Vanin-1 enzyme” (Pfizer Inc., priority 2016, dated 2021).

Key:
[1] = molecular target: human vanin-1 present in human plasma (Homo sapiens (Human), UniProt O95497); test: Vanin-1 in Human Plasma Assay; type: biochemical; conditions: 50% pooled human plasma, 50 uM substrate
Experimental: Vanin-1 in Human Plasma Assay.
The in vitro assay measures enzymatic cleavage of the fluorescently-labeled vanin substrate, pantetheine 7-amino-4-trifluoromethylcoumarin, by human vanin-1 present in human plasma.
Human plasma was prepared from whole blood drawn from healthy donors, collected in tubes containing sodium heparin. The plasma fractions were separated from the whole blood by centrifugation for 10 minutes at 2000×g and pooled.
The test inhibitors were solubilized in DMSO to a stock concentration of 30 mM. On the day of the assay, dose response plates were prepared by diluting the inhibitors in DMSO to a compound concentration 200-fold the final in-assay concentration. Concentration series were prepared by serially diluting in 100% DMSO in a three-fold series. […] From this intermediate compound plate, 10 μL were transferred to the assay plate and mixed with 20 uL of the pooled human plasma. The inhibitor and enzyme were co-incubated at room temperature for 30 minutes. The enzyme reaction was initiated by the addition of 10 μL of 200 uM pantetheine 7-amino-4-trifluoromethylcoumarin prepared in assay buffer. The final concentrations in the assay were 50% plasma, and 50 uM substrate. The final concentration of DMSO was 0.5%. Datapoints were measured over time using a Tecan Safire 2 platereader at 405 nm excitation wavelength and a 510 nm emission wavelength for detection.

[2] = molecular target: human vanin-1 (Homo sapiens (Human), UniProt O95497); test: Human Vanin-1 Enzyme Assay 1; type: biochemical; conditions: 25 pM human vanin-1, 50 uM pantetheine 7-amino-4-trifluoromethylcoumarin substrate
Chain of human vanin-1 (O95497 22-491): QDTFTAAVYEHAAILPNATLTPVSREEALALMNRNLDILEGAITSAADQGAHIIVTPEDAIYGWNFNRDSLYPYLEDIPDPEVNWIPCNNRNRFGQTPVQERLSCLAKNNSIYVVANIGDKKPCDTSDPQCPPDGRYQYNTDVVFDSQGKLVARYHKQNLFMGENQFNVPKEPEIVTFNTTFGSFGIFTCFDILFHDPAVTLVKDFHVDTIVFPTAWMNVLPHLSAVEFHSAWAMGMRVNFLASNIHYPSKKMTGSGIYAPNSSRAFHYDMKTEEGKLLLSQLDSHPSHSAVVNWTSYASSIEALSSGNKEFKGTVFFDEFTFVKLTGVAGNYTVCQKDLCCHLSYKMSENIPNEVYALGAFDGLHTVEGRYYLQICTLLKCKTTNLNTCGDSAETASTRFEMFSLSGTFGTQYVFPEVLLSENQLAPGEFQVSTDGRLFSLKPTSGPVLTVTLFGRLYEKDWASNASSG

Chain of human vanin-1 present in human plasma (O95497 22-491): as above

With `O=C(c1cnc(NC2(c3cncnc3)CC2)nc1)N1CCC2(CCOCC2)C1` [Example 188, 8-oxa-2-azaspiro[4.5]dec-2-yl(2-{[1-(pyrimidin-5-yl)cyclopropyl]amino}pyrimidin-5-yl)methanone] as the molecule, how does the IC50 [1] read?
Its IC50 is 0.00117 µM.

What about the IC50 [2] of the same molecule?
The IC50 was 0.000277 µM.

With `Cc1ccc(CNc2ncc(C(=O)N3CC4(CCOCC4)C3)cn2)cn1` [Example 172] as the molecule, how does the IC50 [1] read?
The IC50 was 0.0174 µM.

And the IC50 [2]?
The IC50 was 0.00453 µM.

With `CS(=O)(=O)C1CCCN(C(=O)c2cnc(NC3(c4cncnc4)CC3)nc2)C1` (single isomer, unassigned) [Example 200] as the molecule, how does the IC50 [1] read?
The IC50 was 0.0326 µM.

What about the IC50 [2] of the same molecule?
Its IC50 is 0.0106 µM.

Which IC50 [1] does the source give for `O=C(c1cnc(NC2(c3cncnc3)CCC2)nc1)N1CC2(CCOCC2)C1` [Example 174] here?
The IC50 was 0.000905 µM.

And the IC50 [2]?
Its IC50 is 0.000293 µM.

Which IC50 [1] does the source give for `Cc1ccc(C(C)Nc2ncc(C(=O)N3CCC4(CCOCC4)C3)cn2)cn1` (stereo not drawn) [Example 162] here?
Its IC50 is 0.00297 µM.

And the IC50 [2]?
Its IC50 is 0.000629 µM.

How did the IC50 [1] turn out when `COC1CCCN(C(=O)c2cnc(NC3(c4cncnc4)CC3)nc2)C1` (stereo not drawn) [Example 96] was run?
The IC50 was 0.00986 µM.

What about the IC50 [2] of the same molecule?
Its IC50 is 0.0109 µM.

With `N#CC1CCCN(C(=O)c2cnc(NC3(c4cncnc4)CC3)nc2)C1` (single isomer, unassigned) [Example 196] as the molecule, how does the IC50 [1] read?
Its IC50 is greater than 0.793 µM.

What about the IC50 [2] of the same molecule?
Its IC50 is 1.18 µM.

How did the IC50 [1] turn out when `O=C(c1cnc(NC2(c3cncnc3)CC2)nc1)N1CCCC1` [Example 87] was run?
The IC50 was 0.068 µM.

What about the IC50 [2] of the same molecule?
The IC50 was 0.0798 µM.

How did the IC50 [1] turn out when `O=C(c1cnc(NC2(c3cncnc3)CC2)nc1)N1CCCC(F)(F)C1` [Example 70] was run?
The IC50 was 0.205 µM.

What about the IC50 [2] of the same molecule?
The IC50 was 0.175 µM.
